Experimental data taken from BigSolDB 2.1.

Conditions: in water

CC(C)Br
Conditions	solubility (mole fraction)
295.25 K	0.000587
300.15 K	0.00082
303.55 K	0.00104
306.25 K	0.00121
310.35 K	0.00157
313.25 K	0.00189
316.15 K	0.00227
321.25 K	0.00307
323.25 K	0.00343
325.55 K	0.00394
329.35 K	0.00483
331.25 K	0.00536
334.15 K	0.0063
337.35 K	0.00743
340.55 K	0.0087
343.15 K	0.0101
345.45 K	0.0112
348.55 K	0.0127
350.15 K	0.0139
352.35 K	0.0154
354.75 K	0.0171

NC(N)=S
Conditions	solubility (mole fraction)
290.75 K	0.0256
293.05 K	0.0289
296.65 K	0.0347
300.25 K	0.0413
303.15 K	0.0474
307.1 K	0.0583
310.15 K	0.0641
313.15 K	0.071
315.85 K	0.0806
318.35 K	0.0886
320.75 K	0.0969
323.25 K	0.103
326.05 K	0.116
328.45 K	0.126
330.55 K	0.135
333.25 K	0.15
336.45 K	0.161
340.75 K	0.183
343.55 K	0.198
347.35 K	0.218
351.15 K	0.239
353.45 K	0.251
355.75 K	0.265
